One experiment concerns 40 distinct BDs. Description: BROMOscan BromoMAX panel. The settings on record: for binding to other BDs in BROMOscan: 2 μM, BDs other than BRD7/BRD9; for selectivity in BROMOscan panel: 2 μM concentration. Format: binding, human.
The target in another experiment is T1, His-tagged BRD9 BD (Homo sapiens, UniProt Q9H8M2).
T1 sequence (Q9H8M2 136-240 limits assumed): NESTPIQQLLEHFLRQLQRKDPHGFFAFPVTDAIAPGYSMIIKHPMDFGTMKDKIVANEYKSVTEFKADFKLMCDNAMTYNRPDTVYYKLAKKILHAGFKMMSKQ
Description: Thermal shift assay. The note with it: compounds at 25, 10, or 1 μM. Format: binding.

The target of another experiment is T2, His-tagged BRD7 BD (Homo sapiens, UniProt Q9NPI1).
T2 sequence (Q9NPI1 131-235 limits assumed): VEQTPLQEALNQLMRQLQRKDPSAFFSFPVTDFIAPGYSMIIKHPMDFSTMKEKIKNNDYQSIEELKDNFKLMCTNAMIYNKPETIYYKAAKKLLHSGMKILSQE
Description: Thermal shift assay. Type of experiment: binding. The settings on record: compounds at 25, 10, or 1 μM.

The subject of the next experiment is 22Rv1 cells. Description: On-target activity assessment in 22Rv1 cells with BRD7 knockdown. Format: cell-based, human. The settings on record: 2.5 or 5 μM, 4 days, two shRNA constructs.
A further experiment deals with T3, BRD9 BD (Homo sapiens, UniProt Q9H8M2).
T3 sequence (Q9H8M2 136-240 limits assumed): T1 sequence (Q9H8M2 136-240 limits assumed)
Description: Microscale thermophoresis. Format: binding. The settings on record: 50 nM His-tagged BRD9, ligand from 50 μM. A general note: MST reads how a fluorescent partner responds to local heating, with and without ligand.

A further experiment has as its target T4, His-tagged BRPF1B BD (Homo sapiens, UniProt P55201).
T4 sequence (P55201 628-732 limits assumed): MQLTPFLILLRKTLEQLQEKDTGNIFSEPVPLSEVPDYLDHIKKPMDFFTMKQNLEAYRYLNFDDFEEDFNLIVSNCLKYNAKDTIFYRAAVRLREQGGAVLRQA
Description: Thermal shift assay. Type of experiment: binding. The settings on record: compounds at 25, 10, or 1 μM.

Another experiment deals with PC-3 cells. Description: Growth inhibition, CellTiter-Glo, 4 days. Type of experiment: cell-based, human. The settings on record: 5, 1, and 0.1 μM. For orientation: ATP-based viability assays read luminescence as a measure of living cells.
Experiment [1] concerns LNCaP cells. Description: Growth inhibition, CellTiter-Glo, 4 days. Type of experiment: cell-based, human. The settings on record: 5, 1, and 0.1 μM.
Experiment [2] deals with LNCaP, C4–2 and PC3 cells. Description: Dose curves over 7 days of treatment, CellTiter-Glo. Type of experiment: cell-based, human.
For the next experiment, the target named is T5, BRD7 BD (Homo sapiens, UniProt Q9NPI1).
T5 sequence (Q9NPI1 131-235 limits assumed): T2 sequence (Q9NPI1 131-235 limits assumed)
Description: NanoBRET target engagement in HEK293T cells. A general note: In BRET a luciferase serves as donor, and the signal depends on an acceptor being close.

Experiment [3] has as its target T6, BRPF1B BD (Homo sapiens, UniProt P55201).
T6 sequence (P55201 628-732 limits assumed): T4 sequence (P55201 628-732 limits assumed)
Description: BROMOscan BromoMAX panel. The note with it: 2 μM. Type of experiment: binding.

The test system of experiment [4] is LNCaP cells. Description: RNA-Seq gene expression in LNCaP cells. Type of experiment: cell-based, human. The note with it: 1 μM, 72 h.
Experiment [5] deals with T6, BRPF1B BD. Description: NanoBRET target engagement in HEK293T cells. Format: cell-based.
In the next experiment the target is T7, BRD9 (Homo sapiens, UniProt Q9H8M2).
T7 sequence (Q9H8M2 1-597): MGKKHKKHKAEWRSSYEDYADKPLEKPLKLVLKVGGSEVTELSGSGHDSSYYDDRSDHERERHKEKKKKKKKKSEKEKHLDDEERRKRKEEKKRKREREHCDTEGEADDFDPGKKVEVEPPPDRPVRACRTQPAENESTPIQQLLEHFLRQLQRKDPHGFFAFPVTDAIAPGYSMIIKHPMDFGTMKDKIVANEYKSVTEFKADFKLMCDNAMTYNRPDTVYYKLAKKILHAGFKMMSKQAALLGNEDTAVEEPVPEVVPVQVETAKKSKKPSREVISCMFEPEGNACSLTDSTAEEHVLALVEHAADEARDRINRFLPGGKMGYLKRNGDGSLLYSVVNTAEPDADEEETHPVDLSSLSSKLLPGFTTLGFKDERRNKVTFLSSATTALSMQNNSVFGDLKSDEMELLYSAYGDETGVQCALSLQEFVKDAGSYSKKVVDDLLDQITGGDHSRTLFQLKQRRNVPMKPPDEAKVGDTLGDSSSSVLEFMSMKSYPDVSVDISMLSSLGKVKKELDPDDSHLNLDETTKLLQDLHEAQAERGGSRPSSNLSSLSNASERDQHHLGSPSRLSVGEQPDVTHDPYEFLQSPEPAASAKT
Description: Cell fractionation assay, BRD9 bound to chromatin. Format: cell-based. The settings on record: HEK293T, 10 μM, 24 h.

The text below walks through data of publication PMC10641717 (Journal of medicinal chemistry, 2023).

As a reminder, the IC50 is the concentration that inhibits the measured activity by half. Higher therefore signals a need for much substance.

On to `Cc1cc(C)cc(-c2cn(C)c(=O)c3ccccc23)c1` [1–38, 4-(3,5-Dimethylphenyl)-2-methylisoquinolin-1(2H)-one], for which the “binding to other BDs in BROMOscan” value with 40 distinct BDs is “no binding to other BDs”. Further, on His-tagged BRD9 BD, the “stabilization / Tm increase of BRD9 BD (TSA)” value is “stabilized and increased the Tm”. At His-tagged BRD7 BD, the “stabilization / Tm increase of BRD7 BD (TSA)” value is “stabilized and increased the Tm”.
On to `COc1ccc(-c2ccc3c(C)cc(=O)n(C)c3c2)c(C)n1` [1–78, 7-(6-Methoxy-2-methylpyridin-3-yl)-1,4-dimethylquinolin-2(1H)-one], for which the “viability of 22Rv1 cells with BRD7 knockdown” value in the experiment on 22Rv1 cells was “not significantly affected”. For the same compound, the “binding to BRD9 (MST)” value at BRD9 BD was “no binding”. The “stabilization of BRPF1B BD (TSA)” value on His-tagged BRPF1B BD is listed as “modest stabilization of BRPF1B at the highest concentration (25 μM)”. In addition, the “selectivity in BROMOscan panel” value in the experiment with 40 distinct BDs is given as “showed selectivity for BRD7 over BRD9”. The PC-3 cell growth entry in the experiment with PC-3 cells is given as “active in PC-3 only at the highest concentration”. Moreover, the “stabilization / Tm increase of BRD7 BD (TSA)” value on His-tagged BRD7 BD is listed as “increased the Tm”. The LNCaP cell growth result with LNCaP cells [1] is reported as “inhibited the cell growth”. Moreover, the “sensitivity of LNCaP and C4–2 cells relative to PC3 cells” value in experiment [2] is listed as 3−6 times. The IC50 at BRD7 BD amounted to 800 nM. The “binding to BRPF1B BD in BROMOscan” value at BRPF1B BD [3] is on record as “off-target binding”.
With `COc1ccc(-c2ccc3c(C)cc(=O)n(C)c3c2)c(OC)n1` [2–77, 7-(2,6-Dimethoxypyridin-3-yl)-1,4-dimethylquinolin-2(1H)-one], the “viability of 22Rv1 cells with BRD7 knockdown” value in the experiment on 22Rv1 cells is “less affected”. Besides, the “binding to BRD9 (MST)” value at BRD9 BD is reported as “no binding”. Also, the “selectivity in BROMOscan panel” value with 40 distinct BDs was “showed selectivity for BRD7 over BRD9”. In the experiment on LNCaP cells [4], the “GSEA Hallmark_Androgen_Response enrichment” value is “significant and strong negative enrichment”. Also, the PC-3 cell growth result in the experiment on PC-3 cells is on record as “active in PC-3 only at the highest concentration”. The “stabilization / Tm increase of BRD7 BD (TSA)” value on His-tagged BRD7 BD is given as “increased the Tm”. Also, the figures for the IC50 on BRPF1B BD [5] and against BRD7 BD were > 10000 nM and 1200 nM, respectively. In the experiment with LNCaP cells [1], the LNCaP cell growth result is on record as “inhibited the cell growth”. Further, the “sensitivity of LNCaP and C4–2 cells relative to PC3 cells” value in experiment [2] is 3−6 times. For the same compound, the “binding to BRPF1B BD in BROMOscan” value at BRPF1B BD [3] is “off-target binding”.
Consider `COc1ccc2ccccc2c1-c1ccc2c(C)cc(=O)n(C)c2c1` [2–81, 7-(2-Methoxynaphthalen-1-yl)-1,4-dimethylquinolin-2(1H)-one], for which the “binding to other BDs in BROMOscan” value in the experiment on 40 distinct BDs is reported as “no binding to other BDs”.
Take `COc1ccc(-c2cn(C)c(=O)c3ccccc23)c(OC)n1` [2–88, 4-(2,6-Dimethoxypyridin-3-yl)-2-methylisoquinolin-1(2H)-one]: the “stabilization / Tm increase of BRD9 BD (TSA)” value on His-tagged BRD9 BD is “stabilized only BRD9 BD”. For the same compound, at His-tagged BRD7 BD, the “stabilization / Tm increase of BRD7 BD (TSA)” value was “stabilized only BRD9 BD”.
Regarding `COc1cc(-c2cn(C)c(=O)c3cnccc23)cc(OC)c1CN(C)C` [BI7273, reference compound], the PC-3 cell growth entry with PC-3 cells is “little to no effect”. Also, the “stabilization / Tm increase of BRD7 BD (TSA)” value on His-tagged BRD7 BD was “binding and stabilization”. For the same compound, the LNCaP cell growth entry in the experiment with LNCaP cells [1] is “little to no effect”.
Turning to `COc1ccccc1C(=O)Nc1cc2c(cc1N1CCCCC1)n(C)c(=O)n2C` [GSK-5959, reference compound], the PC-3 cell growth result in the experiment on PC-3 cells is “little to no effect”. The LNCaP cell growth result with LNCaP cells [1] is listed as “little to no effect”.
Turning to `CCn1cc(-c2cccc(C(F)(F)F)c2)c2sc(C(=N)NC3CCS(=O)(=O)CC3)cc2c1=O` [I-BRD9], the “BRD9 bound to chromatin after treatment” value on BRD9 was “significantly reduced BRD9 from chromatin”.
